Measurements taken from patent US20260297081A1, “COMPOUNDS AND METHODS OF TREATING CANCERS” (Cullgen Inc., priority 2023, published 2026).
Read-outs that look alike come from different tables or passages of the source.

Tests used:
[1] = system: MCF7 cells; experiment: Anti-proliferation (viability) of MCF7 cells (Table 7, FIG. 2B); type: cell-based; details: 3-6 days, 10-point serial dilution, read-out: GI IC50 in MCF-7
[2] = biological target: CDK4 (Homo sapiens, UniProt P11802+Q16531); experiment: CDK4 percentage degradation in Calu-1 cells (Table 6); type: cell-based; design: Cells that express cyclin D1-3 and CDK4/6 proteins were treated with heterobifunctional compounds; endogenous in cells; host or cells: Calu-1; details: 16 hours; for inhibition at 0.04 µM: 40 nM; for inhibition at 0.2 µM: 200 nM
Method in brief: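 Percentage degradation of Cyclin D1 and CDK4 derived from densitometry of ECL Western blots on lysates of Calu-1 cells. Treatment was 16 h with compound at either 40 nM or 200 nM.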

Sequence of CDK4 (P11802 2-303 limits assumed): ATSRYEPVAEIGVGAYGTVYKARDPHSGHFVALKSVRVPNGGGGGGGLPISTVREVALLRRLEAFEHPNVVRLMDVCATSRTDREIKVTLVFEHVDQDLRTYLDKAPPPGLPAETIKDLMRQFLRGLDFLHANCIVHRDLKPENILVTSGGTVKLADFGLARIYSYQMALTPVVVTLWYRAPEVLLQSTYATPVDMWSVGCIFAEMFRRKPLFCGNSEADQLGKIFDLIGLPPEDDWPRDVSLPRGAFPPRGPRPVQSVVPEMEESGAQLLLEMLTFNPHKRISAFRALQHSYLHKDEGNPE
Sequence of CDK4 (P24385 whole entry partner): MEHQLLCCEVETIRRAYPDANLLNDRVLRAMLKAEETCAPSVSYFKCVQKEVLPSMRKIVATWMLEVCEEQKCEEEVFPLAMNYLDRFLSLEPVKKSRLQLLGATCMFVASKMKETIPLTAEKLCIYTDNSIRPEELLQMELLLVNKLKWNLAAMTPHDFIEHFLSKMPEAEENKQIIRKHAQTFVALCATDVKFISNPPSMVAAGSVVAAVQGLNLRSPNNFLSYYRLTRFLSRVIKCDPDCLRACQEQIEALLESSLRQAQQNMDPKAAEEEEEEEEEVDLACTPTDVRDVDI
Sequence of CDK4 (Q16531 2-1140 limits assumed): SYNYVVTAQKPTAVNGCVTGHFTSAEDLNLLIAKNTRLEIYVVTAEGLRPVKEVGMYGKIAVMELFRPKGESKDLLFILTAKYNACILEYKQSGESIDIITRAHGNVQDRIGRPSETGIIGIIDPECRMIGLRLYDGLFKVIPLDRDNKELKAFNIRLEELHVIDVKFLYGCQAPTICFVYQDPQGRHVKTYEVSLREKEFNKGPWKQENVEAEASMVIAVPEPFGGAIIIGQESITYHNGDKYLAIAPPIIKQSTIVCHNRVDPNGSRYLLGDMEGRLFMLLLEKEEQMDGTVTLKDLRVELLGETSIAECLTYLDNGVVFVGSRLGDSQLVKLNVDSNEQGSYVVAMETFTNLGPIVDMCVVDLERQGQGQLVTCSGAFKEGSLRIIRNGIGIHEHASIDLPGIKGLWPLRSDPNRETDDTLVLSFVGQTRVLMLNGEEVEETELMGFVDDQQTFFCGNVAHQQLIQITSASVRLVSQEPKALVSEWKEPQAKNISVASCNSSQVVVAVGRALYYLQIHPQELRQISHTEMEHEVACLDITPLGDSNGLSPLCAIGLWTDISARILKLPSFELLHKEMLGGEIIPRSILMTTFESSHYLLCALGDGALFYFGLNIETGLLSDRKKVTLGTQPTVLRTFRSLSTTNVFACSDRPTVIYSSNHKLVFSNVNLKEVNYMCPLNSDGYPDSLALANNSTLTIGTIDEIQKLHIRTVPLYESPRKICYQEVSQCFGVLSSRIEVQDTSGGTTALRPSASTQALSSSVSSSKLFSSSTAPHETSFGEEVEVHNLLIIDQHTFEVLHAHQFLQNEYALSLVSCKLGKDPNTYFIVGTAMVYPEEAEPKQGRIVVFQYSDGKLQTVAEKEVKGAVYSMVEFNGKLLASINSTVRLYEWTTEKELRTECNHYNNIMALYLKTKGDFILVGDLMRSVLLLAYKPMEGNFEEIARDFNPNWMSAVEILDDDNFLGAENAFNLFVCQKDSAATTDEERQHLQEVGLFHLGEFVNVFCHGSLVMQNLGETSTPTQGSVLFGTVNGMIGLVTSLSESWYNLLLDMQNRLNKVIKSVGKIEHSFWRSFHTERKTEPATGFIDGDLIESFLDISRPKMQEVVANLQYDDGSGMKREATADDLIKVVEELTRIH

| SMILES | IC50 ([1]; Homo sapiens, MCF7, MCF7 cells) | IC50 ([1]; MCF7 cells) | inhibition at 0.04 µM [2] | inhibition at 0.2 µM [2] |
| --- | --- | --- | --- | --- |
| CC(=O)c1c(C)c2cnc(Nc3ccc(N4CCC5(CC4)CC(C(=O)NC4CC6(C4)CC(Nc4nc(NC(C)C)ccc4C(=O)Nc4ccc(N(C)C)nn4)C6)C5)cn3)nc2n(C2CCCC2)c1=O (centres unmarked) [CPD-437, 7-(6-((6-acetyl-8-cyclopentyl-5-methyl-7-oxo-7,8-dihydropyrido[2,3-d]pyrimidin-2-yl)amino)pyridin-3-yl)-N-(6-((3-((6-(dimethylamino)pyridazin-3-yl)carbamoyl)-6-(isopropylamino)pyridin-2-yl)amino)spiro[3.3]heptan-2-yl)-7-azaspiro[3.5]nonane-2-carboxamide] | > 100 nM | – | – | – |
| CC(=O)c1c(C)c2cnc(Nc3ccc(N4CCN(CC(=O)NC5CC6(C5)CC(Oc5nc(NC(C)C)ccc5C(=O)Nc5cn(C)c(C7CC7)n5)C6)CC4)cn3)nc2n(C2CCCC2)c1=O (centres unmarked) [CPD-317, 2-((6-(2-(4-(6-((6-acetyl-8-cyclopentyl-5-methyl-7-oxo-7,8-dihydropyrido[2,3-d]pyrimidin-2-yl)amino)pyridin-3-yl)piperazin-1-yl)acetamido)spiro[3.3]heptan-2-yl)oxy)-N-(2-cyclopropyl-1-methyl-1H-imidazol-4-yl)-6-(isopropylamino)nicotinamide] | > 100 nM | – | – | – |
| CC(=O)c1c(C)c2cnc(Nc3ccc(N4CCC(N5CCC(C(=O)N6CC(Nc7nc(NC(C)C)ccc7C(=O)Nc7ccc(N(C)C)nn7)C6)C5)CC4)cn3)nc2n(C2CCCC2)c1=O (centres unmarked) [CPD-394, 2-((1-(1-(1-(6-((6-acetyl-8-cyclopentyl-5-methyl-7-oxo-7,8-dihydropyrido[2,3-d]pyrimidin-2-yl)amino)pyridin-3-yl)piperidin-4-yl)pyrrolidine-3-carbonyl)azetidin-3-yl)amino)-N-(6-(dimethylamino)pyridazin-3-yl)-6-(isopropylamino)nicotinamide] | > 100 nM | – | – | – |
| CC(=O)c1c(C)c2cnc(Nc3ccc(N4CCN(CC(=O)NC5CC6(C5)CC(Nc5nc(C(C)(C)O)ccc5C(=O)Nc5cn(C)c(C7CC7)n5)C6)CC4)cn3)nc2n(C2CCCC2)c1=O (centres unmarked) [CPD-352, 2-((6-(2-(4-(6-((6-acetyl-8-cyclopentyl-5-methyl-7-oxo-7,8-dihydropyrido[2,3-d]pyrimidin-2-yl)amino)pyridin-3-yl)piperazin-1-yl)acetamido)spiro[3.3]heptan-2-yl)amino)-N-(2-cyclopropyl-1-methyl-1H-imidazol-4-yl)-6-(2-hydroxypropan-2-yl)nicotinamide] | > 100 nM | – | – | – |
| CNc1ccc(C(=O)Nc2cn(C)c(C(C)(C)O)n2)c(NC2CC3(CC(NC(=O)CN4CCN(c5ccc(Nc6ncc7c(C)c(C(C)=O)c(=O)n(C8CCCC8)c7n6)nc5)CC4)C3)C2)n1 (centres unmarked) [CPD-340, 2-((6-(2-(4-(6-((6-acetyl-8-cyclopentyl-5-methyl-7-oxo-7,8-dihydropyrido[2,3-d]pyrimidin-2-yl)amino)pyridin-3-yl)piperazin-1-yl)acetamido)spiro[3.3]heptan-2-yl)amino)-N-(2-(2-hydroxypropan-2-yl)-1-methyl-1H-imidazol-4-yl)-6-(methylamino)nicotinamide] | > 100 nM | – | – | – |
| CC(=O)c1c(C)c2cnc(Nc3ccc(N4CCN(CC(=O)NCC5CC(Nc6cc(F)ccc6C(=O)Nc6cc(C)n(C)n6)C5)CC4)cn3)nc2n(C2CCCC2)c1=O (centres unmarked) [CPD-264, 2-((3-((2-(4-(6-((6-acetyl-8-cyclopentyl-5-methyl-7-oxo-7,8-dihydropyrido[2,3-d]pyrimidin-2-yl)amino)pyridin-3-yl)piperazin-1-yl)acetamido)methyl)cyclobutyl)amino)-N-(1,5-dimethyl-1H-pyrazol-3-yl)-4-fluorobenzamide] | > 100 nM | – | – | – |
| CNc1ccc(C(=O)Nc2ccc(N(C)C)nn2)c(NC2CC(C(=O)N3CCC(N4CCN(c5ccc(Nc6ncc7c(C)c(C(C)=O)c(=O)n(C8CCCC8)c7n6)nc5)CC4)CC3)C2)n1 (centres unmarked) [CPD-334] | – | > 100 nM | – | – |
| [2H]C([2H])([2H])Nc1ccc(C(=O)Nc2cn(C)c(C3CC3)n2)c(NC2CC3(C2)CN(C(=O)CN2CCC4(CCN(c5ccc(Nc6ncc7c(C)c(C(C)=O)c(=O)n(C8CCCC8)c7n6)nc5)C4)C2)C3)n1 (centres unmarked) [CPD-443, 2-((2-(2-(7-(6-((6-acetyl-8-cyclopentyl-5-methyl-7-oxo-7,8-dihydropyrido[2,3-d]pyrimidin-2-yl)amino)pyridin-3-yl)-2,7-diazaspiro[4.4]nonan-2-yl)acetyl)-2-azaspiro[3.3]heptan-6-yl)amino)-N-(2-cyclopropyl-1-methyl-1H-imidazol-4-yl)-6-((methyl-d3)amino)nicotinamide] | < 50 nM | – | – | – |
| CC(=O)c1c(C)c2cnc(Nc3ccc(N4CCN(CC(=O)NCCC5CC(Nc6nc(C7CC7)ccc6C(=O)Nc6ccc(C)c(C7CC7)n6)C5)CC4)cn3)nc2n(C2CCCC2)c1=O (centres unmarked) [CPD-45, 2-((3-(2-(2-(4-(6-((6-Acetyl-8-cyclopentyl-5-methyl-7-oxo-7,8-dihydropyrido[2,3-d]pyrimidin-2-yl)amino)pyridin-3-yl)piperazin-1-yl)acetamido)ethyl)cyclobutyl)amino)-6-cyclopropyl-N-(6-cyclopropyl-5-methylpyridin-2-yl)nicotinamide] | – | – | < 30% | < 30% |
| [2H]C([2H])([2H])Nc1ccc(C(=O)Nc2ccc(N(C)C)nn2)c(NC2CC(NC(=O)CN3CCN(c4ccc(Nc5ncc6c(C)c(C(C)=O)c(=O)n(C7CCCC7)c6n5)nc4)CC3)C2)n1 (centres unmarked) [CPD-245, 2-((3-(2-(4-(6-((6-acetyl-8-cyclopentyl-5-methyl-7-oxo-7,8-dihydropyrido[2,3-d]pyrimidin-2-yl)amino)pyridin-3-yl)piperazin-1-yl)acetamido)cyclobutyl)amino)-N-(6-(dimethylamino)pyridazin-3-yl)-6-((methyl-d3)amino)nicotinamide] | – | – | 30 to 50% | 50 to 80% |
| CNc1ccc(C(=O)Nc2ccc(N(C)C)cc2)c(NCCCCCNC(=O)CN2CCN(c3ccc(Nc4ncc5c(C)c(C(C)=O)c(=O)n(C6CCCC6)c5n4)nc3)CC2)n1 [CPD-46, 2-((5-(2-(4-(6-((6-Acetyl-8-cyclopentyl-5-methyl-7-oxo-7,8-dihydropyrido[2,3-d]pyrimidin-2-yl)amino)pyridin-3-yl)piperazin-1-yl)acetamido)pentyl)amino)-N-(4-(dimethylamino)phenyl)-6-(methylamino)nicotinamide] | – | – | < 30% | < 30% |
| CNc1ccc(C(=O)Nc2ccc(OC)nn2)c(NCCCCCNC(=O)CN2CCN(c3ccc(Nc4ncc5c(C)c(C(C)=O)c(=O)n(C6CCCC6)c5n4)nc3)CC2)n1 [CPD-108, 2-((5-(2-(4-(6-((6-Acetyl-8-cyclopentyl-5-methyl-7-oxo-7,8-dihydropyrido[2,3-d]pyrimidin-2-yl)amino)pyridin-3-yl)piperazin-1-yl)acetamido)pentyl)amino)-N-(6-methoxypyridazin-3-yl)-6-(methylamino)nicotinamide] | – | – | 30 to 50% | 30 to 50% |
| CNc1ccc(C(=O)Nc2ccc(C)c(C)n2)c(NCCCCCNC(=O)CN2CCN(c3ccc(Nc4ncc5c(C)c(C(C)=O)c(=O)n(C6CCCC6)c5n4)nc3)CC2)n1 [CPD-109, 2-((5-(2-(4-(6-((6-Acetyl-8-cyclopentyl-5-methyl-7-oxo-7,8-dihydropyrido[2,3-d]pyrimidin-2-yl)amino)pyridin-3-yl)piperazin-1-yl)acetamido)pentyl)amino)-N-(5,6-dimethylpyridin-2-yl)-6-(methylamino)nicotinamide] | – | – | 50 to 80% | 50 to 80% |
| CNc1ccc(C(=O)Nc2ccc(N(C)C)nn2)c(NC2CC(CNC(=O)N3CCN(c4ccc(Nc5ncc6c(C)c(C(C)=O)c(=O)n(C7CCCC7)c6n5)nc4)CC3)C2)n1 (centres unmarked) [CPD-166, 4-(6-((6-acetyl-8-cyclopentyl-5-methyl-7-oxo-7,8-dihydropyrido[2,3-d]pyrimidin-2-yl)amino)pyridin-3-yl)-N-((3-((3-((6-(dimethylamino)pyridazin-3-yl)carbamoyl)-6-(methylamino)pyridin-2-yl)amino)cyclobutyl)methyl)piperazine-1-carboxamide] | – | – | 50 to 80% | 50 to 80% |
| CNc1ccc(C(=O)Nc2cccc(C#N)n2)c(NC2CC3(CC(NC(=O)CN4CCN(c5ccc(Nc6ncc7c(C)c(C(C)=O)c(=O)n(C8CCCC8)c7n6)nc5)CC4)C3)C2)n1 (centres unmarked) [CPD-90, 2-((6-(2-(4-(6-((6-Acetyl-8-cyclopentyl-5-methyl-7-oxo-7,8-dihydropyrido[2,3-d]pyrimidin-2-yl)amino)pyridin-3-yl)piperazin-1-yl)acetamido)spiro[3.3]heptan-2-yl)amino)-N-(6-cyanopyridin-2-yl)-6-(methylanino)nicotinamide] | – | – | < 30% | 50 to 80% |
| CNc1ccc(C(=O)Nc2cn(C)c(C(C)C)n2)c(NC2CC3(CC(NC(=O)CN4CCN(c5ccc(Nc6ncc7c(C)c(C(C)=O)c(=O)n(C8CCCC8)c7n6)nc5)CC4)C3)C2)n1 (centres unmarked) [CPD-195, 2-((6-(2-(4-(6-((6-acetyl-8-cyclopentyl-5-methyl-7-oxo-7,8-dihydropyrido[2,3-d]pyrimidin-2-yl)amino)pyridin-3-yl)piperazin-1-yl)acetamido)spiro[3.3]heptan-2-yl)amino)-N-(2-isopropyl-1-methyl-1H-imidazol-4-yl)-6-(methylamino)nicotinamide] | – | – | < 30% | 50 to 80% |
| CNc1ccc(C(=O)Nc2ccc(N(C)C)nn2)c(NC2CN(C(=O)CN3CCN(c4ccc(Nc5ncc6c(C)c(C(C)=O)c(=O)n(C7CCCC7)c6n5)nc4)CC3)C2)n1 [CPD-187, 2-((1-(2-(4-(6-((6-acetyl-8-cyclopentyl-5-methyl-7-oxo-7,8-dihydropyrido[2,3-d]pyrimidin-2-yl)amino)pyridin-3-yl)piperazin-1-yl)acetyl)azetidin-3-yl)amino)-N-(6-(dimethylamino)pyridazin-3-yl)-6-(methylamino)nicotinamide] | – | – | < 30% | 50 to 80% |
